One assay concerns DU145 cells. The assay is described as follows: Annexin V/PI flow cytometry, DU145. Format: cell-based, human. The conditions noted are these: DU145, 10 μM Pt(IV)-4C or 2.5 μM Pt(IV)-5C for 1 hour, analyzed 12 hours post treatment. As for the experimental part: FIG. 11 is a series of graphs showing flow cytometry analysis of Annexin V/PI staining in A549 cells (top) and DU145 cells (bottom) treated with Pt(IV)-4C and Pt(IV)-5C. A549 cells were treated for 5 hours with control (left), 25 μM Pt(IV)-4C (center), or 10 μM Pt(IV)-5C (right), and analyzed 12 hours post treatment. DU145 cells were treated for 1 hour with control (left), 10 μM Pt(IV)-4C (center), or 2.5 μM Pt(IV)-5C (right) and analyzed 12 hours post treatment. Q1=PI+, represents necrotic cells; Q2=Annexin V/PI+, representing late apoptotic/necrotic cells; Q3=Annexin V+, representing early apoptotic cells; Q4=AnnexinV/PI−, representing live cells. Data are representative of three independent experiments.
Cells (˜50 to 60% confluent in 60 mm dishes) were treated as indicated with the platinum compound. After treatment, the floating cells were collected, and both attached and floating cells were washed 2× with PBS. The cells were resuspended in fresh medium and incubated as indicated. The cells were harvested (both the floating and attached cells were collected), counted, and pelleted. The cells were then washed two times with 5 mL of Ca^2+ and Mg^2+ free PBS. The pellets were then washed in 2.0 mL of 1× Annexin-V Binding buffer (BD Bioscience, San Jose, CAS) and centrifuged at 500×g for 5 minutes. […] A quantitative measure of these event shifts was accomplished by gating. […]

The subject of assay [1] is phosphorylated H2AX (γH2AX) in A549 cells. The assay can be described thus: Flow cytometry of phosphorylated H2AX, A549. It is filed as cell-based, human. To be noted: A549, 25 μM Pt(IV)-4C or 7.5 μM Pt(IV)-5C for 6 hours, analyzed 12 hours post treatment. The procedure: FIG. 9 is a series of graphs plotting Pt(IV) complex-induced phosphorylation of H2AX in A549 cells (top panels) and DU145 cells (bottom panels). A549 cells were treated with control (left), 25 μM Pt(IV)-4C (center), or 7.5 μM Pt(IV)-5C (right) for 6 hours, and analyzed 12 hours post treatment. DU145 cells were treated for 2 hours with control (left), 10 μM Pt(IV)-4C (center), or 2.5 μM Pt(IV)-5C (right), and analyzed 7 hours post treatment. Data are representative of three independent experiments.
Cells (200,000 to 250,000) were seeded in 60 mm dishes and incubated at 37° C. in a humidified, 5% CO2 atmosphere for 2 days to reach ˜50-60% confluence. The cells were treated with the platinum complexes as indicated, the floating cells were collected, and both attached and floating cells were washed 2× with PBS. The cells were resuspended in fresh medium and incubated as indicated. After incubation, both the floating and attached cells were collected and fixed by incubation in 4% formaldehyde for 10 minutes at room temperature. The fixed cells were pelleted and permeabilized by incubation in 500 μL of ice-cold methanol at 4° C. for 10 minutes. The samples were stored at −20° C. until analysis. For analysis, the cells were pelleted and washed 2× with 1% BSA in PBS. […] After washing 2× with 1% BSA, the cells were resuspended in PBS and analyzed on a Becton Dickinson FACS Calibur. […]

On to `CC(=O)[O][Pt]([Cl])([Cl])[O]C(C)=O.CCCCCOc1ccnc(-c2cc(OCCCCC)ccn2)c1` [Pt(IV)-5C, [Pt(IV)Cl2(OAc)2(4,4′-dipentoxy-2,2′-bipyridine)]], for which the “Annexin V/PI staining (apoptosis)” value in the assay with DU145 cells is “induce apoptosis”. Moreover, the “level of phosphorylated H2AX (γH2AX)” value in assay [1] was “increase of γH2AX”.

Consider “[Pt(IV)Cl2(OAc)2(4,4′-dibutoxy-2,2′-bipyridine)] [Pt(IV)-4C]”, for which, in the assay with DU145 cells, the “Annexin V/PI staining (apoptosis)” value is “induce apoptosis”. Further, the “level of phosphorylated H2AX (γH2AX)” value in assay [1] is recorded as “increase of γH2AX”.
